Among the data in ChEMBL document CHEMBL1145740, “Novel alpha-amino-acid phenolic ester derivatives with intravenous anaesthetic activity” (Bioorg Med Chem Lett, 2003) are HD50 and IC50 values, retold here.

Test [1] deals with Mus musculus. Briefly: Intravenous hypnotic dose that caused a loss of righting reflex for a minimum period of 30s in 50% of treated mice determined by probit analysis. The format is functional.
Test [2] deals with GABA-A receptor; anion channel. Briefly: In vitro inhibition of [35S]TBPS binding to GABA-A receptor of rat whole brain membranes. Format: cell membranes.

Where only a bound is given, the exact number is not on record here.

With `COC(=O)CC(C(=O)Oc1c(OC)cccc1OC)N1CCOCC1` (stereo not given), the HD50 in test [1] amounted to 79 µM/kg.
In test [1], `COc1cccc(OC)c1OC(=O)C(CCSC)N1CCCCCCC1` (stereo not given) came in with an HD50 of 35 µM/kg.
Consider `CCN(CC)C(=O)CC(C(=O)Oc1c(OC)cc(C)cc1OC)N1CCOCC1` (stereo not given), for which the HD50 in test [1] was determined as 38 µM/kg.
In general, IC50 refers to the point on the concentration scale where inhibition reaches its midpoint. For the compound `COc1cc(C)cc(OC)c1OC(=O)C(CCS(C)(=O)=O)N1C=CCCC1` (stereo not given), the IC50 in test [2] is 6.2 µM. Also, the HD50 in test [1] came out at 39.3 µM/kg.
On to `COc1cc(C)cc(OC)c1OC(=O)C(CCSC)N1CCOCC1` (stereo not given), for which, in test [1], the HD50 turned out to be 34.8 µM/kg.
`CC(C)c1cccc(C(C)C)c1O` [PROPOFOL]: the HD50 in test [1] amounted to 68 µM/kg.
`CCN(CC)C(=O)CC(C(=O)Oc1c(OC)cccc1OC)N1CCOCC1` (stereo not given) had an HD50 in test [1] of 117 µM/kg.
For `COCCN(CCOC)C(CC(=O)OC)C(=O)Oc1c(OC)cc(C)cc1OC` (stereo not given), the HD50 in test [1] worked out at 48 µM/kg.
In test [1], `COc1cccc(OC)c1OC(=O)C(CCSC)N1CCCC1` (stereo not given) gave an HD50 of 40 µM/kg.
For the compound `COC(=O)CC(C(=O)Oc1c(OC)cccc1OC)N1CCCCC1` (stereo not given), the IC50 in test [2] stood at 11.7 µM. This compound also gave an HD50 in test [1] of 26.4 µM/kg.
`COc1cccc(OC)c1OC(=O)C(CCSC)N1CCOCC1` (stereo not given) returned an HD50 in test [1] of 26.1 µM/kg.
The compound `COc1cccc(OC)c1OC(=O)C(CC(=O)N1CCCC1)N1CCCCCC1` (stereo not given) showed an HD50 in test [1] of 34 µM/kg.
As to `COC(=O)CC(C(=O)Oc1c(OC)cc(C)cc1OC)N1CCCCC1` (stereo not given), the IC50 in test [2] came out at 14.7 µM. The same compound showed an HD50 in test [1] of 48 µM/kg.
In turn, `COc1cc(C)cc(OC)c1OC(=O)C(CCSC)N1CCCC1` (stereo not given) gave a 50% inhibitory concentration (IC50) in test [2] of 2.7 µM. In test [1], this compound yielded an HD50 of 31.4 µM/kg.
In test [1], `COc1cccc(OC)c1OC(=O)C(CC(=O)N1CCCC1)N1CCCC1` (stereo not given) had an HD50 of 102 µM/kg.
For the compound `COc1cccc(OC)c1OC(=O)C(CCS(C)(=O)=O)N1CCOCC1` (stereo not given), the HD50 in test [1] amounted to 99 µM/kg.
In the case of `COC(=O)CC(C(=O)Oc1c(OC)cccc1OC)N1CCCC1` (stereo not given), the HD50 in test [1] came to 77 µM/kg.
In test [1], `COc1cc(C)cc(OC)c1OC(=O)C(CC(=O)N1CCCCC1)N1CCCCC1` (stereo not given) registered an HD50 of 37.5 µM/kg.
Same read-out and setting: the value for `COCCN(CCOC)C(CCS(C)(=O)=O)C(=O)Oc1c(OC)cccc1OC` (stereo not given) was greater than 106 µM/kg; that for `COc1cc(C)cc(OC)c1OC(=O)C(CC[S+](C)[O-])N1CCCC1` (stereo not given) was 73 µM/kg.
Regarding `COc1cccc(OC)c1OC(=O)C(CC(=O)N1CCOCC1)N1CCOCC1` (stereo not given), the HD50 in test [1] was greater than 225 µM/kg.
In turn, `COc1cc(C)cc(OC)c1OC(=O)C(CC(=O)N1CCCC1)N1CCCCCC1` (stereo not given) displayed an HD50 in test [1] of 67 µM/kg.
As for `CC[C@H](C(=O)Oc1c(OC)cc(C)cc1OC)N(CCOC)CCOC` [ORG-24447], the HD50 in test [1] was determined as 21.7 µM/kg.
In test [2], `COc1cccc(OC)c1OC(=O)C(CCSC)N1CCCCCC1` (stereo not given) showed an IC50 of 9.7 µM. Besides, the HD50 in test [1] was determined as 18.2 µM/kg.
In test [2], `COc1cccc(OC)c1OC(=O)C(CCSC)N1CCCCC1` (stereo not given) registered a 50% inhibitory concentration (IC50) of 4 µM. For the same compound, in test [1], the HD50 is less than 25 µM/kg.
`COc1cc(C)cc(OC)c1OC(=O)C(CCS(C)(=O)=O)N1CCOCC1` (stereo not given): the HD50 in test [1] was determined as 108 µM/kg.
The same measure, in the same setting: the value for `COCCN(CCOC)C(CCS(C)(=O)=O)C(=O)Oc1c(OC)cc(C)cc1OC` (stereo not given) was 77 µM/kg.
With `COC(=O)CC(C(=O)Oc1c(OC)cccc1OC)N1CCCCCC1` (stereo not given), the IC50 in test [2] came out at 4.2 µM. This compound also showed an HD50 in test [1] of 22.9 µM/kg.
In turn, `COC(=O)CC(C(=O)Oc1c(OC)cc(C)cc1OC)N1CCCC1` (stereo not given) came in with an HD50 in test [1] of 52 µM/kg.
`COC(=O)CC(C(=O)Oc1c(OC)cc(C)cc1OC)N1CCOCC1` (stereo not given) had an HD50 in test [1] of 46 µM/kg.
The same measure, in the same setting: the value for `COC(=O)CC(C(=O)Oc1c(OC)cc(C)cc1OC)N1CCCCCC1` (stereo not given) was 26 µM/kg.
In turn, `COCCN(CCOC)C(CC(=O)OC)C(=O)Oc1c(OC)cccc1OC` (stereo not given) came in with an HD50 in test [1] of 48 µM/kg.
In test [2], `COCCN(CCOC)C(CCSC)C(=O)Oc1c(OC)cc(C)cc1OC` (stereo not given) came in with an IC50 of 6.9 µM. Also, the HD50 in test [1] stood at 22.6 µM/kg.
For the compound `COc1cc(C)cc(OC)c1OC(=O)C(CC[S+](C)[O-])N1CCOCC1` (stereo not given), in test [1], the HD50 came out at 299 µM/kg.
For `COc1cccc(OC)c1OC(=O)C(CC(=O)N1CCCCC1)N1CCCCC1` (stereo not given), the HD50 in test [1] amounted to 39 µM/kg.
Take `COc1cc(C)cc(OC)c1OC(=O)C(CC(=O)N1CCOCC1)N1CCOCC1` (stereo not given): in test [1], the HD50 was greater than 218 µM/kg.
The compound `COc1cc(C)cc(OC)c1OC(=O)C(CC(=O)N1CCCC1)N1CCCC1` (stereo not given) showed an HD50 in test [1] of 81 µM/kg.
